Tests used:
[1] = tissue distribution and excretion; assay type: in vivo
Protocol: (§1) Exposure to NRL-2017 was similar or greater (up to 5-fold) than that to NRL-1049 in rats when dosed once a day (QD). In monkeys, exposure to NRL-2017 was also greater (up to 33-fold) than that to NRL-1049. When rats were dosed twice a day (BID) for 14 days, there was a decrease in formation of NRL-2017 with exposure to NRL-2017 lower than that of NRL-1049 (ratio as low as 0.06). […] NRL-1049 bound to human serum albumin and human alpha1-acid glycoprotein. […] There was also inhibition of P-glycoprotein (P-gp) (only CACO-2 cells), organic anion transporting polypeptides (OATP) OATP1B1, OATP1B3 and OAT3 (IC50, >100 μM), but no effect on P-gp (MDCK2 cells), breast cancer resistance protein (BCRP), bile salt export pump (BSEP), or MATE2-K. NRL-1049 is a substrate for P-gp, not BCRP. […] This conclusion will be revisited when human pharmacokinetic (PK) data becomes available.

[2] = nonclinical exposure to NRL-2017 versus NRL-1049 in monkeys; assay type: in vivo
Protocol: as §1

ROCK 2 = ROCK 2 (Homo sapiens, UniProt O75116); assay: ROCK 2 inhibition by metabolites; assay type: biochemical
[3] = first-in-human single ascending dose and food-effect study, plasma pharmacokinetics; assay type: in vivo; settings: for Tmax: po; for Thalf: mean
Text: This was a first-in-human, single center, randomized, double-blind, placebo-controlled, single ascending dose (SAD) study, including a food-effect assessment, in healthy male and female subjects. Up to 44 subjects were included in the study.
The study consisted of 4 sequential cohorts of 8 subjects each (6 active and 2 placebo), randomly assigned to receive a single oral dose of NRL-1049 or matching-placebo under fasting state on Day 1 (See Table 2). In each cohort, a sentinel group of 2 subjects (1 active and 1 placebo) were dosed at least 24 hours prior to enrolling the remaining subjects of the cohort, contingent on the safety profile observed during sentinel dosing, as defined by medical judgment.
Subjects were admitted to the clinical research unit (CRU) on Day −1. On Day 1, following an overnight fast, subjects received a single oral dose of their assigned study treatment. Safety, PK, and exploratory biomarker assessments were performed prior to dosing and at assigned time points during study confinement. Subjects were permitted to leave the CRU following the completion of the 48-hour PK postdose sampling and safety assessments. A safety follow-up phone call was performed on Day 8 (±1 day).
Furthermore, a food-effect assessment was integrated into Cohort 3, in which a single oral 150 mg dose of NRL-1049 or placebo was administered to 12 subjects (10 active and 2 placebo) under fed state in Period 2 (refer to schedule of food-effect Cohort 3 in Table 3). After completion of Period 1 and a washout period of at least 14 days, Cohort 3 subjects repeated the screening procedures to ensure they still met the inclusion and exclusion criteria prior to readmission to the CRU for Period 2. Subjects dosed in Period 1 and who returned for Period 2 (a maximum of 6 active and 2 placebo) were administered the same single oral dose in Period 2 under fed state. In addition, at least 4 new subjects were enrolled in Period 2 only, in order to dose a total of 12 subjects (10 active and 2 placebo), in a 1:1 ratio of male to female. If a subject dosed in Period 1 was unable to return for Period 2, a new subject was enrolled to ensure dosing a total of 12 subjects in Period 2. Newly enrolled subjects only received the study drug in the fed state, and as such were not required to undergo Period 1 activities. There was no sentinel approach in Period 2.
Study drugs (NRL-1049 or placebo) were administered in the morning. The date and time of each dose was recorded. For each subject, all scheduled postdose activities and assessments were performed relative to the time of study drug administration. An oral dose of the assigned formulation was administered to subjects with approximately 240 mL of water at ambient temperature. The capsule(s) were swallowed whole and not chewed or broken. Food and fluid intake other than water were controlled for each confinement period and all subjects. In Cohorts 1, 2, 3 (Period 1), and 4, water was permitted as needed except from 1 hour predose until 1 hour after dosing. In Period 2 of Cohort 3, water was permitted as needed throughout the confinement period. For cohorts under fasting state, subjects were required to fast (abstain from food) for at least 10 hours prior to dosing and for at least 4 hours following dosing. In Period 2 of the food-effect cohort only, following an overnight fast of at least 10 hours, subjects received a standardized high-fat, high-calorie meal 30 minutes prior to study drug administration. An example meal would consist of 2 eggs fried in butter, 2 strips of bacon, 2 slices of toast with butter, 4 ounces of hash brown potatoes, and 8 ounces of whole milk. […] Subjects had to eat the total content of this meal in 30 minutes or less. For all cohorts, a standardized lunch was served at least 4 hours after dosing. A supper, light snack, and other meals were served at appropriate times thereafter, but not until after 9 hours postdose. […]

[4] = nonclinical exposure to NRL-2017 versus NRL-1049 in rats; assay type: in vivo
Protocol: as §1

[5] = nonclinical pharmacokinetics after a single oral dose; assay type: in vivo, mice, rats, and monkeys
Protocol: as §1

[6] = 150 mg NRL-1049, fed compared to fasting state
[7] = 25 to 250 mg NRL-1049, fasting conditions

ROCK 2, sequence (O75116 whole entry, species assumed): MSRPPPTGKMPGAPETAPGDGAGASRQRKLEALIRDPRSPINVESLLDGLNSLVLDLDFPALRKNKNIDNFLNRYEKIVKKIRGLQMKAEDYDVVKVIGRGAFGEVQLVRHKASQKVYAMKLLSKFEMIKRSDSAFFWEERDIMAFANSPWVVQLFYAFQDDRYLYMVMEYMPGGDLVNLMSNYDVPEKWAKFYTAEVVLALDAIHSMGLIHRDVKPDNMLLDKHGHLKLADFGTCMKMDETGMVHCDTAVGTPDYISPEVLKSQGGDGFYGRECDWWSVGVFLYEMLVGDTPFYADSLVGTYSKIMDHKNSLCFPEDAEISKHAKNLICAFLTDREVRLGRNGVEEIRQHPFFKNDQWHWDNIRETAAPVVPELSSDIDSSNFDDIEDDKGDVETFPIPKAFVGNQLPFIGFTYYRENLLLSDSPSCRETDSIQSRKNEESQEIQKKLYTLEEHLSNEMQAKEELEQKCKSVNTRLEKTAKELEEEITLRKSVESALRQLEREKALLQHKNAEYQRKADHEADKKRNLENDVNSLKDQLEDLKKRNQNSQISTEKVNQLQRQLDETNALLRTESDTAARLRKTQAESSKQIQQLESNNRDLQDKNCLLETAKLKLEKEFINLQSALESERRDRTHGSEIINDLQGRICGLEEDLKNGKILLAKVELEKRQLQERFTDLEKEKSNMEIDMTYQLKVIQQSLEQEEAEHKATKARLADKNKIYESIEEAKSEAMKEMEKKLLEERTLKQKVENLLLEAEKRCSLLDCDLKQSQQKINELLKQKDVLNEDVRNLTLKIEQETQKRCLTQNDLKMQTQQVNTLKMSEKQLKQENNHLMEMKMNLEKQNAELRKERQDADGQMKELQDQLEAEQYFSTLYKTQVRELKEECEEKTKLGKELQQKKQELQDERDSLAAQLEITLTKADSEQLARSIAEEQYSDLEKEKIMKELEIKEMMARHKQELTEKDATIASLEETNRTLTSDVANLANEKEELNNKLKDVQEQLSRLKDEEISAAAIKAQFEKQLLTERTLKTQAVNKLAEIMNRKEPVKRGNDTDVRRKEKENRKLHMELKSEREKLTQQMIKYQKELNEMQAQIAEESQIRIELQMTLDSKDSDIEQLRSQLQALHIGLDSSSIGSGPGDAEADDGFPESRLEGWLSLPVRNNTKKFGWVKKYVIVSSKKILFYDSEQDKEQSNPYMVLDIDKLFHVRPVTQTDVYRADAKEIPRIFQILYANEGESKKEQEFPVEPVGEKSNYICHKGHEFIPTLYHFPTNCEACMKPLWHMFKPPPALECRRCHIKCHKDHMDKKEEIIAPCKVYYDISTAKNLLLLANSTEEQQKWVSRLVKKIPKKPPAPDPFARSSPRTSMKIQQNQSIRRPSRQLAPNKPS

- tissue distribution ([1]; brain, aorta, inferior vena cava): distributed to brain and vascular tissue
- excretion ([1]; in vivo): excreted in urine
- exposure to NRL-2017 relative to NRL-1049 [2]: up to 33 fold
- ROCK 2 inhibition (ROCK 2): potent ROCK 2 inhibitor
- food effect on mean AUC0-T and AUCinf [3, 6]: remained consistent
- food effect on mean Cmax [3, 6]: decreased
- food effect on mean elimination half-life [3, 6]: remained consistent
- manner of increase of AUC0-T with dose [3, 7]: greater than dose proportional
- manner of increase of AUC0-Tmax with dose [3, 7]: dose proportional
- manner of increase of AUCinf with dose [3, 7]: greater than dose proportional
- manner of increase of Cmax with dose [3, 7]: greater than dose proportional
- time up to which mean concentrations were quantifiable ([3]; all dose levels of 25 to 250 mg NRL-1049 fasting and 150 mg fed): up to 48 hours
- AUC(0-t) ([3]; both sexes, human, plasma, oral, range over dose range 25 to 250 mg NRL-1049, fasting state, read-out: mean AUC0-T): 478 to 6690 ng·h/mL
- AUC ([3]; both sexes, human, plasma, oral, range over dose range 25 to 250 mg NRL-1049, fasting state, read-out: mean AUC0-Tmax): 35.6 to 457 ng·h/mL
- AUC(0-inf) ([3]; both sexes, human, plasma, oral, range over dose range 25 to 250 mg NRL-1049, fasting state, read-out: mean AUCinf): 546 to 7040 ng·h/mL
- Cmax ([3]; both sexes, human, plasma, oral, range over dose range 25 to 250 mg NRL-1049, fasting state, read-out: mean Cmax): 54.2 to 1520 ng/mL
- half-life ([3]; both sexes, human, plasma, oral, range over the dose groups 25 to 250 mg NRL-1049, fasting state, read-out: mean elimination half-life): 12.3 to 17.3 h
- Tmax ([3]; both sexes, human, plasma, 150 mg, plasma metabolite NRL-2017, median, 150 mg NRL-1049 single oral, Fasted, Cohort 3, N = 6, read-out: Tmax): 1.13 h
- Tmax ([3]; both sexes, human, plasma, 150 mg, plasma metabolite NRL-2017, median, 150 mg NRL-1049 single oral, Fed, Cohort 3, N = 10, read-out: Tmax): 1.75 h
- Tmax ([3]; both sexes, human, plasma, range over single oral doses of 25 to 250 mg NRL-1049, fasting state, read-out: median time to maximum observed plasma concentration (Tmax)): 0.88 to 1.63 h
- Thalf ([3]; plasma metabolite NRL-2017, 150 mg NRL-1049 single oral, Fasted, Cohort 3, N = 6): 12.28 h
- Thalf ([3]; plasma metabolite NRL-2017, 150 mg NRL-1049 single oral, Fed, Cohort 3, N = 10): 12.37 h
- exposure to NRL-2017 relative to NRL-1049 ([4]; rats dosed once a day (QD), similar or greater): up to 5 fold
- exposure ratio NRL-2017 to NRL-1049 ([4]; rats dosed twice a day (BID) for 14 days): ≥ 0.06
- exposure versus dose ([5]; in vivo): greater than dose-proportional
- half-life ([5]; mouse, rat, monkey, plasma, single oral dose of NRL-1049, range over mice, rats, and monkeys, read-out: elimination phase half-life (t½)): 0.58 to 5.7 h
- Tmax ([5]; mouse, rat, monkey, plasma, single oral dose of NRL-1049, range over mice, rats, and monkeys, read-out: time to maximum plasma concentration (Tmax)): 0.5 to 4 h
Compound: C[C@@H](N)C1CCN(S(=O)(=O)c2cccc3c(O)nccc23)CC1 [NRL-2017, 1-hydroxy NRL-1049]

Reference: US20250281479A1, “TREATMENT OF CAVERNOUS ANGIOMAS WITH A 4-SUBSTITUTED PIPERIDINE DERIVATIVE” (Neurelis, Inc., priority 2024, published 2025)
